Literature values as cited in patent US20200330541A1, “COMPOSITIONS AND METHODS FOR MODULATING ENDOTHELIAL CELL MIGRATION AND ANGIOGENESIS” (University of Maine System Board of Trustees, priority 2017, published 2020).

Experiments:
[1] = healthy humans after consumption of black currant
[2] = tested on: endothelial cell; settings: through the JAK/STAT3 and MAPK signaling pathways
[3] = tested on: RAC1; settings: smooth muscle cells, 24 hour exposure at 1 μmol/L and 100 μmol/L, compared to untreated cells
[4] = tested on: smooth muscle cell
[5] = tested on: HUVEC; settings: 200 μM, 100 μM, and 50 μM

## C[C@@H]1O[C@@H](OC[C@H]2O[C@@H](Oc3cc4c(O)cc(O)cc4[o+]c3-c3cc(O)c(O)c(O)c3)[C@H](O)[C@@H](O)[C@@H]2O)[C@H](O)[C@H](O)[C@H]1O [D3R, delphinidin, 3-O-β-rutinoside]
[1]
  concentration in the plasma: 73.7 ± 35.0 nM

## O=c1cc(-c2ccc(O)cc2)oc2cc(O)cc(O)c12 [apigenin]
[2]
  endothelial cell migration, proliferation, and tubulogenesis: inhibited

## O=C(O)/C=C/c1ccc(O)c(O)c1 [caffeic acid]
[3]
  RAC1 protein synthesis: significantly decreased

## O=c1oc2c(O)c(O)cc3c(=O)oc4c(O)c(O)cc1c4c23 [ellagic acid]
[2]
  endothelial cell migration, proliferation, and tubulogenesis: inhibited

## OC[C@H]1O[C@@H](Oc2cc3c(O)cc(O)cc3[o+]c2-c2ccc(O)cc2)[C@H](O)[C@@H](O)[C@@H]1O [pelargonidin-3-glucoside]
[4]
  cell proliferation and smooth muscle cell migration: inhibitory effect

## Delph inidin-3-(p-coumaroylrutinoside)-5-glucoside [nasunin]
[5]
  HUVEC proliferation rate: inhibit

## epigallocatechin-3 gallate
[2]
  endothelial cell migration, proliferation, and tubulogenesis: inhibited
